Assay results as given in US10590121B2, “Kinase inhibitors and methods for making and using” (Rigel Pharmaceuticals, Inc., priority 2017, dated 2020).

Assays:
[1] = system: LPS induced IL-23 (p19/p40) in DC cells differentiated from human PBMC; experiment: IL23-p19 ELISA, dendritic cells (DC differentiated from human PBMC), IFNγ primed, LPS stimulated; type: cell-based; details: human PBMC-derived dendritic cells, 1 μg/ml LPS, 18 hours, 10 pt
Method: Compound Screening Using DC Cells
1. Differentiation of PBMC's to DC Cells:
Human PBMC cells (400 million) obtained from the vendor were transferred into a T-175 flask containing 15 ml RPMI media (10% FBS) and incubate for 2 hours at 37° C. After 2 hours, the media including floating cells was aspirated out carefully and 12 ml of fresh RPMI media (10% FBS) containing GMCSF (100 ng/ml) and IL4 (20 ng/ml) was added, and the flask was kept in a 37° C. incubator for 7 days.
After 3 days, fresh GMCSF (100 ng/ml) and IL4 (20 ng/ml) were added to the flask and the incubation continued. After 7 days, the fully differentiated cells were harvested by spinning down (1200 rpm/5 min) and aspirating the media. The cells were suspended in fresh RPMI media (10% FBS) containing 50 ng/ml IFNγ (1000 U/ml) and then plated (50K/well in 100 μl) onto a white clear bottom 96 well plate and left in a 37° C. incubator for 24 hours.
2. Addition of Compounds:
After 24 hours incubation, 100 μl of RPMI media was added containing 2× concentrated test compound per well to the above cell-culture media (final concentration becomes 1×) and the plates were pre-incubated for 1 hour at 37° C. before stimulating with LPS.
After 1 hour compound pre-incubation, 10 μl per well of 20× concentrated LPS solution in RPMI media was added to give a final concentration of 1 μg/ml. The mixture was shaken and incubated the plates at 37° C. for an additional 18 hours.
155 μl of the supernatant was harvested from each well carefully (without the tip touching the bottom of the well) and to the remaining 50 μl/well of the cell culture plate was added 50 μl of Cell Titer Glo reagent. The mixture was incubated for 1-2 minutes on a shaker and the plate was read for luminescence intensity to determine the compound cytotoxicity. The cell culture supernatant collected above was used to carry out IL23 ELISA (65 μl-Supernatant) and IL10 ELISA (90 μl-Supernatant) as described below.
Human IL-23 (p19/p40) ELISA Protocol (e-Biosciences)
To 10.5 ml PBS add 50 μl of anti-IL23 (p19) was added capture antibody (2.5 μg/ml). The mixture was mixed well and 100 μl of the coating solution was added to each well of the 96 well white plates from Pierce. The wells were covered and incubated overnight at 4° C.
The anti-IL23 (p19)-antibody-coated plates were washed 2× using TBST (use plate washer) and blocked using 200 μl of 0.5% Casein for 1.5-2 hours at room temperature with shaking.
The plates were washed 2× using TBST and the supernatant was transferred (65 μl/well) to the above pre-blocked/IL23 (p19)-antibody-coated 96 well plate, and incubated at room temperature for 1.5 hours with shaking.
The plates were washed 4× using TBST (plate washer) and 100 μl/well detection antibody solution prepared from 2 μl of biotin labeled anti-IL-12 (p40/p70) antibody in 11 ml 1% BSA/PBS solution (1-5000 dilution) was added. The plates were incubated for 1 hour with shaking at room temperature.
Again, the plates were washed 4× with TBST and 100 μl of HRP labeled Streptavidin (R&D Systems) solution (10 μl/10 ml 1% BSA solution) was added, and the plates were incubated at room temperature for another 45 minutes with shaking.
After 45 minutes, the plates were washed with TBST 4× and 100 ul/well Super Signal ELISA Pico Chemiluminescent Substrate from Pierce (3.5 ml A+3.5 ml B+3.5 ml MQ water) was added. The plates were shaken for 1-2 minutes then read on a plate reader.

[2] = system: LPS induced IL23p19 in THP-1 cells; experiment: LPS Induced IL23p19 in THP-1 Cells (with IFNγ Primed) Assay; type: cell-based; details: Homo sapiens; THP-1 cells primed with IFNγ 50 ng/mL, 1 μg/mL LPS, 18 hours, 10 pt; read-out: IL23-p19 ELISA, THP1-IFNy, LPS, 10 pt EC50
Source text: LPS Induced IL23p19 in THP-1 Cells (with IFNγ Primed) Assay
THP-1 Cells (ATCC, Cat # TIB-202), Dimethyl Sulfoxide (DMSO) (Sigma-Aldrich, Cat # D2650), RPMI 1640 (Cellgro, Cat #10-040-CM), Fetal Bovine Serum (Sigma, Cat # F4135), Albumin From Bovine Serum (BSA) (Sigma-Aldrich, Cat # A7906), LPS (Serotype K-235, Sigma, Product Number L 2143), IFNγ (Peprotech, Cat #300-02), Capture antibody: Human IL-23p19 ELISA (e-Bioscience, Cat. #14-7238-85), Detection antibody: Primary Mouse Biotinylated anti-human IL-12 (p40/p70) (e-Bioscience, Cat. #13-7129-85), Secondary HRP-conjugated Streptavidin (R&D Systems, Cat # DY998), 1×PBST Washing Buffer (PBS-Tween tablet) (VWR International, Cat #80058-558), ELISA Blocking Buffer (PBS with 1% BSA), ELISA Dilution Buffer (PBS with 1% BSA), 384 Well Flat-Bottom, MaxiSorp Black Immuno Plates (Thermo Scientific, Cat #12-565-346), 384 Well Flat-Bottom, White Tissue Culture Plates (Thermo Scientific, Cat #12-565-343), Super Signal ELISA Pico Chemiluminescent Substrate (Thermo Scientific, Cat #37070), Cell Titer Glo reagent (Promega, Cat # G7573), Positive control, IKK2VI inhibitor (Calbiochem, Cat #401483), AquaMax 4000 plate washer (Molecular Devices), Luminometer, Wallac Victor2 1420 Multilabel Counter.
On day 1, 50K/well THP-1 cells were seeded and primed with IFNγ (50 ng/mL) in 384-well plates for about 18 hours in RPMI media with 10% FBS. On day 2, the compound was serially diluted in DMSO from 5 mM in 3-fold dilutions, and then diluted 1:125 in RPMI media with 10% FBS. 50 μL/well 2× compound was added to 50 μL/well THP-1 cells (with IFNγ primed) in duplicate in 384 well tissue culture plates. The cells were pre-incubated with compound for 1 hour at 37° C., 5% CO2 before addition of 10 μL/well 11×LPS to give a final concentration of 1 μg/mL LPS. Day 3, after stimulation for 18 hours at 37° C., 5% CO2, the assay plate was centrifuged and 70 μL/well supernatant was harvested. IL-23p19 protein in 70 μL/well of supernatant was measured by sandwich ELISA, and 25 μl/well Cell Titer Glo reagent was added to the remaining cells to measure compound toxicity.
Human IL-23p19 Sandwich ELISA:
Maxisorp immuno ELISA plates were pre-coated with 25 μL/well of anti-IL-23p19 capture antibody (2.5 ug/mL) in PBS overnight at room temperature. After washing with 1×PBST, the plates were blocked using 100 μL/well of 1% BSA in PBS for 2 hours at room temperature. The plates were washed three times with 1×PBST and 70 μL/well supernatant were added. The plates were incubated at room temperature for 2 hours with shaking and washed three times with 1×PBST. 25 μL/well of biotin labeled anti-IL-12 (p40/p70) detection antibody (100 ng/mL) in PBS with 1% BSA was added and the plates were incubated at room temperature for 2 hours with shaking. After washing three times with 1×PBST, 25 μL/well of streptavidin-HRP (1:200) in PBS with 1% BSA was added and the plates were incubated at room temperature for 20 minutes with shaking. The plates were washed three times with 1×PBST and 25 μL/well of Super Signal ELISA Pico Chemiluminescent Substrate were added. The plates were read with a luminometer, and the chemiluminescence values were entered into Athena (Rigel) for curve fitting, EC50 calculation, and database storage.

SMILES | EC50 [1] | EC50 [2]
CN1CCN(c2ccc(NC(=O)c3cccc(-c4cn[nH]c4)n3)c(N3CCC(F)CC3)c2)CC1 [I-7, N-(2-(4-fluoropiperidin-1-yl)-4-(4-methylpiperazin-1-yl)phenyl)-6-(1H-pyrazol-4-yl)picolinamide] | 689 nM | 880 nM
O=C(Nc1cc(CN2CCOCC2)ccc1N1CCCCC1)c1csc(-c2cn[nH]c2)n1 [I-62, N-(5-(morpholinomethyl)-2-(piperidin-1-yl)phenyl)-2-(1H-pyrazol-4-yl)thiazole-4-carboxamide] | 311 nM | 306 nM
CN(CCN1CCOCC1)c1ccc(NC(=O)c2csc(-c3cn[nH]c3)n2)c(N2CCCCC2)c1 [I-71, N-(4-(methyl(2-morpholinoethyl)amino)-2-(piperidin-1-yl)phenyl)-2-(1H-pyrazol-4-yl)thiazole-4-carboxamide] | 2280 nM | 19300 nM
O=C(Nc1ccc(N2CCOCC2)cc1N1CCOCC1)c1cccc(-c2cn[nH]c2)n1 [I-13, N-(2,4-dimorpholinophenyl)-6-(1H-pyrazol-4-yl)picolinamide] | 14400 nM | 1730 nM
O=C(Nc1cc(CC(=O)N2CCOCC2)ccc1N1CCCCC1)c1csc(-c2cn[nH]c2)n1 [I-65, N-(5-(2-morpholino-2-oxoethyl)-2-(piperidin-1-yl)phenyl)-2-(1H-pyrazol-4-yl)thiazole-4-carboxamide] | 124 nM | 195 nM
O=C(Nc1cc(C(F)(F)CN2CCOCC2)ccc1N1CCCCC1)c1csc(-c2cn[nH]c2)n1 [I-35, N-(5-(1,1-difluoro-2-morpholinoethyl)-2-(piperidin-1-yl)phenyl)-2-(1H-pyrazol-4-yl)thiazole-4-carboxamide] | 2600 nM | 1080 nM
O=C(Nc1cc(CCN2CCOCC2)ccc1N1CCCCC1)c1cccc(-c2cn[nH]c2)n1 [I-66, N-(5-(2-morpholinoethyl)-2-(piperidin-1-yl)phenyl)-6-(1H-pyrazol-4-yl)picolinamide] | 41.8 nM | 92.4 nM
CN1CCN(c2ccc(NC(=O)c3cccc(-c4cn[nH]c4)n3)c(N3CCCCC3)c2)CC1 [I-1, N-(4-(4-methylpiperazin-1-yl)-2-(piperidin-1-yl)phenyl)-6-(1H-pyrazol-4-yl)picolinamide] | 843 nM | 308 nM
O=C(Nc1ccc(N2CCOCC2)cc1N1CCC(O)CC1)c1ccc(-c2cn[nH]c2)o1 [I-11, N-(2-(4-hydroxypiperidin-1-yl)-4-morpholinophenyl)-5-(1H-pyrazol-4-yl)furan-2-carboxamide] | 162 nM | 134 nM
O=C(Nc1cc(CCN2CCOCC2)c(F)cc1N1CCCCC1)c1ccc(-c2cn[nH]c2)o1 [I-31, N-(4-fluoro-5-(2-morpholinoethyl)-2-(piperidin-1-yl)phenyl)-5-(1H-pyrazol-4-yl)furan-2-carboxamide] | 63.8 nM | 17200 nM
CC1(O)CCN(c2cc(N3CCOCC3)ccc2NC(=O)c2ccc(-c3cn[nH]c3)o2)CC1 [I-17, N-(2-(4-hydroxy-4-methylpiperidin-1-yl)-4-morpholinophenyl)-5-(1H-pyrazol-4-yl)furan-2-carboxamide] | 166 nM | 216 nM
O=C(Nc1ccc(N2CCOCC2)cc1N1CCCC1)c1ccc(-c2cn[nH]c2)o1 [I-23, N-(4-morpholino-2-(pyrrolidin-1-yl)phenyl)-5-(1H-pyrazol-4-yl)furan-2-carboxamide] | 2270 nM | 2860 nM
O=C(Nc1ccc(CC(=O)N2CCOCC2)cc1N1CCCCC1)c1csc(-c2cn[nH]c2)n1 [I-53, N-(4-(2-morpholino-2-oxoethyl)-2-(piperidin-1-yl)phenyl)-2-(1H-pyrazol-4-yl)thiazole-4-carboxamide] | 408 nM | 167 nM
O=C(Nc1cc(N2CCOCC2)ccc1N1CCCCC1)c1ccc(-c2cn[nH]c2)o1 [I-25, N-(5-morpholino-2-(piperidin-1-yl)phenyl)-5-(1H-pyrazol-4-yl)furan-2-carboxamide] | 532 nM | 645 nM
